Measurements as given in article PMC10608451, “Affinity Purification and Molecular Characterization of Angiotensin-Converting Enzyme (ACE)-Inhibitory Peptides from Takifugu flavidus” (Marine Drugs, 2023).
Like-named read-outs stand apart in the source and are kept apart here. Where a SMILES comes first, the peptide text is derived from it. Where no end group is shown, it is not given here.

How the values were obtained:
[1] = molecular target: T1, ACE (Homo sapiens, UniProt P12821); assay: ACE-inhibitory activity assay of synthetic peptides (HHL substrate, hippuric acid by RP-HPLC); assay type: biochemical; settings: for inhibition at 1000 µg/mL: 0.75 h, peptide 1 mg/mL; for IC50: Table 2, top 8 peptides
Protocol: The peptides were prepared by the fmoc solid-phase method (purity ≥ 98% by HPLC) at Genscript Biotech Corporation (Nanjing, China). ACE-inhibitory activity of the synthesized peptides was evaluated according to the method of Ma. et al., with some modifications. In brief, 50 µL of sample was added into 150 µL of 5 mmol·L^−1 hippuryl-l-histidyl-l-leucine (HHL) and incubated for 10 min at 37 °C. Then, the enzymatic reaction was initiated by addition of 50 µL of 50 mU/mL ACE solution and kept at a constant temperature of 37 °C for 45 min. The reaction was then terminated by adding 250 µL of 1 mol·L^−1 HCl. RP-HPLC (Waters, Milford, MA, USA) was used to measure hippuric acid (HA) formation at 220 nm. […] The IC50 value represents the concentration of the peptide that inhibits 50% of ACE activity under the assay conditions.

[2] = molecular target: T1, ACE; settings: read-out: IC50, ACE inhibition, cited from earlier work
[3] = attributed to multiple hydrophobic amino acids
[4] = molecular target: T1, ACE; assay: Surface plasmon resonance (SPR) assay; assay type: binding
Protocol: The affinity interaction between TLRFALHGME and ACE was verified by SPR experiments. In brief, 5 ug ACE was fixed on a COOH sensor chip by capture-coupling. Afterwards, 50–800 μmol·L^−1 of TLRFALHGME were injected sequentially into the chamber in PBS running buffer. The SPR assay was performed at 25 °C on an OpenSPRTM (Nicoya Lifesciences, Waterloo, QC, Canada). The conditions for the analysis were set at a flow rate of 20 μL·min^−1, the binding time was 240 s, and the disassociation time was 480 s. Chips were regenerated using a regeneration buffer (0.25% SDS). A one-to-one diffusion-corrected model was fitted to the wavelength shifts corresponding to the series of TLRFALHGME concentrations. The kinetic constant analysis was performed using TraceDrawer 1.9.1 software (Ridgeview Instruments AB, Uppsala, Sweden) to determine the association constant (Ka) and dissociation constant (Kd). The affinity constant (KD) was calculated as the ratio kd/ka.

[5] = test system: hypertensive rats; set-up: method as in PMID 34783331; settings: cited from earlier work
[6] = molecular target: T2, angiotensin-I-converting enzyme (UniProt P12822 34-1260)
T2 sequence (looked up): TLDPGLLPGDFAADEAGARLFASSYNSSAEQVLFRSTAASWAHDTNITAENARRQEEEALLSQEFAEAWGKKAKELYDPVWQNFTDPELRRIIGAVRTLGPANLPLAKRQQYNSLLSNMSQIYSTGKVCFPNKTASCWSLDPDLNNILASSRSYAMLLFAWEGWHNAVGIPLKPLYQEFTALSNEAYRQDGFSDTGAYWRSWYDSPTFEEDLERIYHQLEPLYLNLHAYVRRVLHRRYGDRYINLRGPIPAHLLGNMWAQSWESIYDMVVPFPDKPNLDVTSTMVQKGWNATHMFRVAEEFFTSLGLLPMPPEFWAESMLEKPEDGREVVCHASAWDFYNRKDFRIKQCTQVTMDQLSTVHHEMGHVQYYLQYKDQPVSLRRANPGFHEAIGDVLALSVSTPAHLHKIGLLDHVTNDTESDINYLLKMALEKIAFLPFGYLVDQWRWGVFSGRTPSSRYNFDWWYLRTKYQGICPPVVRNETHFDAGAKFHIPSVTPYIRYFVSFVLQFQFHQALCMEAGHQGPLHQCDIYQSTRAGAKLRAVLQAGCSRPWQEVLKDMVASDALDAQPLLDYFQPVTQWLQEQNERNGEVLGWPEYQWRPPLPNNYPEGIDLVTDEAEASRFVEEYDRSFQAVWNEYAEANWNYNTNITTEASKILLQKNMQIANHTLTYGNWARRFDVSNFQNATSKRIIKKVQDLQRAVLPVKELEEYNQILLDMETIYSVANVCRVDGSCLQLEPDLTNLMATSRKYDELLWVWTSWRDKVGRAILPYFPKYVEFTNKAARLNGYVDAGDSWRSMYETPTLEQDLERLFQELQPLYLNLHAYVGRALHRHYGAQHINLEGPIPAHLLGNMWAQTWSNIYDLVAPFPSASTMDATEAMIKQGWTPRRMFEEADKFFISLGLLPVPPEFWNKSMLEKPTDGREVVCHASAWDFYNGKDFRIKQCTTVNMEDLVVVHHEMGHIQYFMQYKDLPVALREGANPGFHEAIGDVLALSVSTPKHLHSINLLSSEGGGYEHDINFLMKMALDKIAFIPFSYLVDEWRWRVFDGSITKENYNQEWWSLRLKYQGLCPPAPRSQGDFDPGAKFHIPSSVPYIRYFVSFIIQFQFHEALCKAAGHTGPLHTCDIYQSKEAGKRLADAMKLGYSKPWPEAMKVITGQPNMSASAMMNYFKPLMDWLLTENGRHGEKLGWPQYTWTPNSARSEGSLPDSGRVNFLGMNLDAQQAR

[7] = molecular target: T2, angiotensin-I-converting enzyme; assay: cell-based or functional assay
[8] = from Volutharpa ampullacea perryi hydrolysate, Zn-SBA-15-immobilized ACE and HPLC

T1 sequence (P12821 30-1306, species assumed): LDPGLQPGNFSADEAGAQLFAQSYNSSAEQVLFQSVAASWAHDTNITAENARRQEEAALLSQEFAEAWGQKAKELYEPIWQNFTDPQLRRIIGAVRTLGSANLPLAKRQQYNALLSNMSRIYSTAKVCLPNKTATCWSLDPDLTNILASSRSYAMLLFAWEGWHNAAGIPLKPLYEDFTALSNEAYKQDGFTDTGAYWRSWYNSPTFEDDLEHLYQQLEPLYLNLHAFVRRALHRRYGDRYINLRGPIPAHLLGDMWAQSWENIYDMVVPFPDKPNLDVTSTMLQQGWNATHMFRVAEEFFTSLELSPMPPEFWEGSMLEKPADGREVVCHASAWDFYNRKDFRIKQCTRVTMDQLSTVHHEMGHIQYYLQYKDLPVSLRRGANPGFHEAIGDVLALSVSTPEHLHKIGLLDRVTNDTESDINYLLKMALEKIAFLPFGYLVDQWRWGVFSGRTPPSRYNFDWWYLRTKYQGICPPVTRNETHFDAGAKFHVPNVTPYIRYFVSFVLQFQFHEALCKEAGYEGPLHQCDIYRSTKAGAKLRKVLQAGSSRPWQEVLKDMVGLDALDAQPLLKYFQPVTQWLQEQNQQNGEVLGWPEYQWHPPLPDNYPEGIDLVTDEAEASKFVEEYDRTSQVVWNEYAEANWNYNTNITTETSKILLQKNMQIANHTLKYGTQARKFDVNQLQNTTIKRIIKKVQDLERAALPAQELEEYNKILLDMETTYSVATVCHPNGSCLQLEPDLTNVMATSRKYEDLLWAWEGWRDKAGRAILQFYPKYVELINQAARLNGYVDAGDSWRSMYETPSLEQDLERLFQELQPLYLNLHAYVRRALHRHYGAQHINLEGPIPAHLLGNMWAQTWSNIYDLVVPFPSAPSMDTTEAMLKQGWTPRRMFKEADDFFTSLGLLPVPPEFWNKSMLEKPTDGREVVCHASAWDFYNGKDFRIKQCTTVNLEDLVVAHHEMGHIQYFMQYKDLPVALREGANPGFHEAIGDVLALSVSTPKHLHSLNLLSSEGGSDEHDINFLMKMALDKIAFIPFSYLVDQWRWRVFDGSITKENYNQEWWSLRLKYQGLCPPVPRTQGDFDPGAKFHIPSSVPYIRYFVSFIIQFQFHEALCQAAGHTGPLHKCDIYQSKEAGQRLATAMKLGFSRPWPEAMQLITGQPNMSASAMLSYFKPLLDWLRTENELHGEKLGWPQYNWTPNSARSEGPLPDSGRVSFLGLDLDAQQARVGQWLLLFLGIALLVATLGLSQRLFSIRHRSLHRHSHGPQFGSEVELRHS

## CC(C)C[C@H](NC(=O)[C@H](C)NC(=O)[C@H](C)NC(=O)[C@@H](N)CO)C(=O)O [SAAL] (H-SAAL-OH; N-terminus and C-terminus assumed)
[1]
  inhibition at 1000 µg/mL: > 50%
  IC50: 883 µM

## CC(C)C[C@H](NC(=O)[C@H](CC(C)C)NC(=O)[C@@H](NC(=O)[C@@H](N)[C@@H](C)O)C(C)C)C(=O)O [TVLL] (H-TVLL-OH; N-terminus and C-terminus assumed)
[1]
  inhibition at 1000 µg/mL: > 50%
  IC50: 582 µM

## CC(C)C[C@H](NC(=O)[C@@H](N)C(C)C)C(=O)NCC(=O)N[C@@H](C)C(=O)O [VLGA] (H-VLGA-OH; N-terminus and C-terminus assumed)
[1]
  inhibition at 1000 µg/mL: > 50%
  IC50: 1370 µM

## CC(C)C[C@H](NC(=O)[C@H](CC(C)C)NC(=O)[C@@H](NC(=O)[C@@H](N)Cc1ccc(O)cc1)C(C)C)C(=O)O [YVLL] (H-YVLL-OH; N-terminus and C-terminus assumed)
[1]
  inhibition at 1000 µg/mL: > 50%
  IC50: 154 µM

## IVTNWDDMEL
[2]; [8]
  IC50: 2080 µM

## RSTGALAL [RSTGALAL]
[1]
  inhibition at 1000 µg/mL: > 50%
  IC50: 5840 µM

## TFTGA [TFTGA]
[1]
  inhibition at 1000 µg/mL: > 50%
  IC50: 694 µM

## TLFGL [TLFGL]
[3]
  Solubility: low solubility
[1]
  inhibition at 1000 µg/mL: > 50%
  IC50: 57.5 µM

## TLRFALHGME [TLRFALHGME]
[1]
  inhibition at 1000 µg/mL: > 50%
  IC50: 93.5 µM
[4]; 25 °C, 50–800 µmol·L^−1 peptide, read-out: Kd (dissociation rate constant)
  koff: 0.002 s⁻¹
[4]; KD, printed in Figure 7
  Kd: 80.8 µM
[4]; abstract, read-out: Kd (binding affinity to ACE)
  Kd: 80.9 µM

## VGPAGRPG
[2]; [8]
  IC50: 4660 µM

## VYP
[2]; from lizard fish protein hydrolysates, MA-IML
  IC50: 108 µM

## WGAP
[5]
  Reduction of diastolic blood pressure: ≤ 28.56 ± 2.71 mmHg
  Reduction of systolic blood pressure: up to 42.66 ± 2.87 mmHg

## YVLL
[6]
  ACE-inhibitory activity (hippuric acid formed from HHL, RP-HPLC), IC50: 154 µM

## TVLL
[6]
  ACE-inhibitory activity (hippuric acid formed from HHL, RP-HPLC), IC50: 582 µM

## SAAL
[6]
  ACE-inhibitory activity (hippuric acid formed from HHL, RP-HPLC), IC50: 883 µM

## VLGA
[6]
  ACE-inhibitory activity (hippuric acid formed from HHL, RP-HPLC), IC50: 1370 µM

## TLFGL
[7]
  ACE-inhibitory activity (hippuric acid formed from HHL, RP-HPLC), IC50: 57.5 µM

B1: TLRFALHGME (peptide)
peptide: TLRFALHGME
notes: source: Takifugu flavidus skin hydrolysate (alcalase, <1 kDa fraction); also synthetic peptide (Fmoc solid phase, Genscript)
[7]
  ACE-inhibitory activity (hippuric acid formed from HHL, RP-HPLC), IC50: 93.5 µM

## TFTGA
[7]
  ACE-inhibitory activity (hippuric acid formed from HHL, RP-HPLC), IC50: 694 µM

## RSTGALAL
[7]
  ACE-inhibitory activity (hippuric acid formed from HHL, RP-HPLC), IC50: 5840 µM
